The source made the active and inactive calls. No cut-off for these calls is given here.
How the values were obtained:
[1] = target: Muscarinic acetylcholine receptor M4 (Homo sapiens) (UniProt P08173); conditions: Compound concentration 10.0 uM
[2] = target: Ribosomal protein S6 kinase alpha-1 (Homo sapiens) (UniProt Q15418); experiment: RPS6KA1 (RSK1) SelectScreen Kinase panel (LifeTechnologies); conditions: Compound concentration 1.0 uM
[3] = target: Serine/threonine-protein kinase MARK2 (Homo sapiens) (UniProt Q7KZI7); experiment: MARK2 SelectScreen Kinase panel (LifeTechnologies); conditions: Compound concentration 1.0 uM
[4] = target: MAP kinase-activated protein kinase 2 (Homo sapiens) (UniProt P49137); experiment: MAPKAPK2 SelectScreen Kinase panel (LifeTechnologies); conditions: Compound concentration 1.0 uM
[5] = target: Fibroblast growth factor receptor 1 (Homo sapiens) (UniProt P11362); experiment: FGFR1 SelectScreen Kinase panel (LifeTechnologies); conditions: Compound concentration 1.0 uM
[6] = target: D(2) dopamine receptor (Homo sapiens) (UniProt P14416); conditions: Compound concentration 10.0 uM
[7] = target: cGMP-dependent protein kinase 1 (Homo sapiens) (UniProt Q13976); experiment: PRKG1 SelectScreen Kinase panel (LifeTechnologies); conditions: Compound concentration 1.0 uM
[8] = target: Serine/threonine-protein kinase 4 (Homo sapiens) (UniProt Q13043); experiment: STK4 (MST1) SelectScreen Kinase panel (LifeTechnologies); conditions: Compound concentration 1.0 uM
[9] = target: Serine/threonine-protein kinase PLK1 (Homo sapiens) (UniProt P53350); experiment: PLK1 SelectScreen Kinase panel (LifeTechnologies); conditions: Compound concentration 1.0 uM
[10] = target: 5-hydroxytryptamine receptor 1A (Homo sapiens) (UniProt P08908); conditions: Compound concentration 10.0 uM
[11] = target: GABA-A receptor; anion channel (Rattus norvegicus) (UniProt O09028+P15431+P18506+P18508+P19969+P20236+P23574+P23576+P28471+P28473+P30191+P62813+P63079+P63138+Q91ZM7+Q9ES14); conditions: Compound concentration 10.0 uM
[12] = target: Serine/threonine-protein kinase MRCK beta (Homo sapiens) (UniProt Q9Y5S2); experiment: CDC42 BPB (MRCKB) SelectScreen Kinase panel (LifeTechnologies); conditions: Compound concentration 1.0 uM
[13] = target: Rho-associated protein kinase 2 (Homo sapiens) (UniProt O75116); experiment: ROCK2 SelectScreen Kinase panel (LifeTechnologies); conditions: Compound concentration 1.0 uM
[14] = target: Protein kinase C theta type (Homo sapiens) (UniProt Q04759); experiment: PRKCQ (PKC theta) SelectScreen Kinase panel (LifeTechnologies); conditions: Compound concentration 1.0 uM
[15] = target: 5-hydroxytryptamine receptor 5A (Homo sapiens) (UniProt P47898); conditions: Compound concentration 10.0 uM
[16] = target: Proto-oncogene tyrosine-protein kinase Src (Homo sapiens) (UniProt P12931); experiment: SRC SelectScreen Kinase panel (LifeTechnologies); conditions: Compound concentration 1.0 uM
[17] = tested on: BT-474; experiment: CellTiter-Glo luminescent cell viability assay (CTG) with BT-474 cells; format: functional, cell-based; conditions: Homo sapiens
[18] = target: Rho-associated protein kinase 1 (Homo sapiens) (UniProt Q13464); experiment: ROCK1 SelectScreen Kinase panel (LifeTechnologies); conditions: Compound concentration 1.0 uM
[19] = target: DNA-dependent protein kinase catalytic subunit (Homo sapiens) (UniProt P78527); experiment: DNA-PK SelectScreen Kinase panel (LifeTechnologies); conditions: Compound concentration 1.0 uM
[20] = target: Beta-2 adrenergic receptor (Homo sapiens) (UniProt P07550); conditions: Compound concentration 10.0 uM
[21] = target: ALK tyrosine kinase receptor (Homo sapiens) (UniProt Q9UM73); experiment: ALK SelectScreen Kinase panel (LifeTechnologies); conditions: Compound concentration 1.0 uM
[22] = target: Mitogen-activated protein kinase 14 (Homo sapiens) (UniProt Q16539); experiment: MAPK14 (p38 alpha) Direct SelectScreen Kinase panel (LifeTechnologies); conditions: Compound concentration 1.0 uM
[23] = target: Ribosomal protein S6 kinase beta-1 (Homo sapiens) (UniProt P23443); experiment: RPS6KB1 (p70S6K) SelectScreen Kinase panel (LifeTechnologies); conditions: Compound concentration 1.0 uM
[24] = target: Tyrosine-protein kinase JAK2 (Homo sapiens) (UniProt O60674); experiment: JAK2 SelectScreen Kinase panel (LifeTechnologies); conditions: Compound concentration 1.0 uM
[25] = target: Serine/threonine-protein kinase PAK 4 (Homo sapiens) (UniProt O96013); experiment: PAK4 SelectScreen Kinase panel (LifeTechnologies); conditions: Compound concentration 1.0 uM
[26] = target: Histamine H4 receptor (Homo sapiens) (UniProt Q9H3N8); conditions: Compound concentration 10.0 uM
[27] = target: Aurora kinase B (Homo sapiens) (UniProt Q96GD4); experiment: AURKB (Aurora B) SelectScreen Kinase panel (LifeTechnologies); conditions: Compound concentration 1.0 uM
[28] = target: Ribosomal protein S6 kinase alpha-2 (Homo sapiens) (UniProt Q15349); experiment: RPS6KA2 (RSK3) SelectScreen Kinase panel (LifeTechnologies); conditions: Compound concentration 1.0 uM
[29] = target: Hepatocyte growth factor receptor (Homo sapiens) (UniProt P08581); experiment: MET (cMet) SelectScreen Kinase panel (LifeTechnologies); conditions: Compound concentration 1.0 uM
[30] = target: Alpha-2A adrenergic receptor (Homo sapiens) (UniProt P08913); conditions: Compound concentration 10.0 uM
[31] = target: cAMP-dependent protein kinase catalytic subunit PRKX (Homo sapiens) (UniProt P51817); experiment: PRKX SelectScreen Kinase panel (LifeTechnologies); conditions: Compound concentration 1.0 uM
[32] = GPCRScan assay: inhibition of GABA/PBR; parameters: species or system Rattus norvegicus; radioligand conc. used [nm] 0.3 – 2.0, parental cells brain tissue
[33] = target: 5-hydroxytryptamine receptor 6 (Homo sapiens) (UniProt P50406); conditions: Compound concentration 10.0 uM
[34] = target: Cytoplasmic tyrosine-protein kinase BMX (Homo sapiens) (UniProt P51813); experiment: BMX SelectScreen Kinase panel (LifeTechnologies); conditions: Compound concentration 1.0 uM
[35] = target: Muscarinic acetylcholine receptor M5 (Homo sapiens) (UniProt P08912); conditions: Compound concentration 10.0 uM
[36] = target: Cyclin-dependent kinase 2/cyclin A (Homo sapiens) (UniProt P24941+P20248+P78396); experiment: CDK2/cyclin A SelectScreen Kinase panel (LifeTechnologies); format: protein-complex assay; conditions: Compound concentration 1.0 uM
[37] = target: Histamine H2 receptor (Homo sapiens, UniProt P25021); experiment: GPCRScan assay: inhibition of H2; parameters: radioligand conc. used [nm] 0.02 – 0.05, parental cells Stable HEK
[38] = target: 3-phosphoinositide-dependent protein kinase 1 (Homo sapiens) (UniProt O15530); experiment: PDK1 Direct SelectScreen Kinase panel (LifeTechnologies); conditions: Compound concentration 1.0 uM
[39] = target: cGMP-dependent protein kinase 2 (Homo sapiens) (UniProt Q13237); experiment: PRKG2 (PKG2) SelectScreen Kinase panel (LifeTechnologies); conditions: Compound concentration 1.0 uM
[40] = target: Serine/threonine-protein kinase Sgk1 (Homo sapiens) (UniProt O00141); experiment: SGK (SGK1) SelectScreen Kinase panel (LifeTechnologies); conditions: Compound concentration 1.0 uM
[41] = target: Tyrosine-protein kinase ABL1 (Homo sapiens) (UniProt P00519); experiment: ABL1 SelectScreen Kinase panel (LifeTechnologies); conditions: Compound concentration 1.0 uM
[42] = target: Ribosomal protein S6 kinase alpha-4 (Homo sapiens) (UniProt O75676); experiment: RPS6KA4 (MSK2) SelectScreen Kinase panel (LifeTechnologies); conditions: Compound concentration 1.0 uM
[43] = target: G protein-coupled receptor kinase 6 (Homo sapiens) (UniProt P43250); experiment: GRK6 SelectScreen Kinase panel (LifeTechnologies); conditions: Compound concentration 1.0 uM

Sequence of Histamine H2 receptor (P25021 whole entry): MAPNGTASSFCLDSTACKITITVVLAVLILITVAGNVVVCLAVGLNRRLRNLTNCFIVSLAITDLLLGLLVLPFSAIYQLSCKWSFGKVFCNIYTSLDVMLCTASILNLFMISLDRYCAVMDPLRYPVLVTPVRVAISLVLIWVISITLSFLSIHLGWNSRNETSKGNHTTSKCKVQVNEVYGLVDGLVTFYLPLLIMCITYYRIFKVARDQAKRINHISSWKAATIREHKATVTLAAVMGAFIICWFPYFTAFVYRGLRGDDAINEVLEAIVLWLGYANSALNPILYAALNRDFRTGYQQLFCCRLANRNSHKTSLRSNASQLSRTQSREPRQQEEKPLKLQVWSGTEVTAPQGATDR
Sequence of 3-phosphoinositide-dependent protein kinase 1 (Homo sapiens) (O15530 whole entry, looked up): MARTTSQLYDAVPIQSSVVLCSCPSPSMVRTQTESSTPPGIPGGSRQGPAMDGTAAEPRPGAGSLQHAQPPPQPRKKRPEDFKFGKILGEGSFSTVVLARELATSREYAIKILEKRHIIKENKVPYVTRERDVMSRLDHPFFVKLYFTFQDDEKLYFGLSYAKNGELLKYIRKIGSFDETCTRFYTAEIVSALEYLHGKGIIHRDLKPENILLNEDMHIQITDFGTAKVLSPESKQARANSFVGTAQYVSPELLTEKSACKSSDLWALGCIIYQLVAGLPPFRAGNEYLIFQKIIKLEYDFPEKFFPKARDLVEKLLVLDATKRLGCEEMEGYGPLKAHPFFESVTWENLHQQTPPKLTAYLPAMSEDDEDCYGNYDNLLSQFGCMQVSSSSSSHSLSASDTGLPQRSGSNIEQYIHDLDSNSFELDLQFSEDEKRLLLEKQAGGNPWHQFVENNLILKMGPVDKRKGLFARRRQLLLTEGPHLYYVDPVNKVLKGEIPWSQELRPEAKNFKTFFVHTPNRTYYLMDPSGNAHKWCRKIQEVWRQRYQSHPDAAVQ
Sequence of 5-hydroxytryptamine receptor 1A (Homo sapiens) (P08908 whole entry): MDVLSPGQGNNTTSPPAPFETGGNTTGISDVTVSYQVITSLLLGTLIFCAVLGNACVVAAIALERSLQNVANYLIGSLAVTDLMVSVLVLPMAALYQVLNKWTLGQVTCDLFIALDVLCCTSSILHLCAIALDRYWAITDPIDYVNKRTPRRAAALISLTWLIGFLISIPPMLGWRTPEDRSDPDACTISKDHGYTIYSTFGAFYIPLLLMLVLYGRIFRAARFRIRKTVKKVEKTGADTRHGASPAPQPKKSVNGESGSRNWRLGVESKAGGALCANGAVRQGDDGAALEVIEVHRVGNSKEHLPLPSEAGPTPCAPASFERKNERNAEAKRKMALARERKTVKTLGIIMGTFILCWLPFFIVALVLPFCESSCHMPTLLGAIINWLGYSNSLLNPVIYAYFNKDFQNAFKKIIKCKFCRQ
Sequence of Tyrosine-protein kinase ABL1 (Homo sapiens) (P00519 whole entry): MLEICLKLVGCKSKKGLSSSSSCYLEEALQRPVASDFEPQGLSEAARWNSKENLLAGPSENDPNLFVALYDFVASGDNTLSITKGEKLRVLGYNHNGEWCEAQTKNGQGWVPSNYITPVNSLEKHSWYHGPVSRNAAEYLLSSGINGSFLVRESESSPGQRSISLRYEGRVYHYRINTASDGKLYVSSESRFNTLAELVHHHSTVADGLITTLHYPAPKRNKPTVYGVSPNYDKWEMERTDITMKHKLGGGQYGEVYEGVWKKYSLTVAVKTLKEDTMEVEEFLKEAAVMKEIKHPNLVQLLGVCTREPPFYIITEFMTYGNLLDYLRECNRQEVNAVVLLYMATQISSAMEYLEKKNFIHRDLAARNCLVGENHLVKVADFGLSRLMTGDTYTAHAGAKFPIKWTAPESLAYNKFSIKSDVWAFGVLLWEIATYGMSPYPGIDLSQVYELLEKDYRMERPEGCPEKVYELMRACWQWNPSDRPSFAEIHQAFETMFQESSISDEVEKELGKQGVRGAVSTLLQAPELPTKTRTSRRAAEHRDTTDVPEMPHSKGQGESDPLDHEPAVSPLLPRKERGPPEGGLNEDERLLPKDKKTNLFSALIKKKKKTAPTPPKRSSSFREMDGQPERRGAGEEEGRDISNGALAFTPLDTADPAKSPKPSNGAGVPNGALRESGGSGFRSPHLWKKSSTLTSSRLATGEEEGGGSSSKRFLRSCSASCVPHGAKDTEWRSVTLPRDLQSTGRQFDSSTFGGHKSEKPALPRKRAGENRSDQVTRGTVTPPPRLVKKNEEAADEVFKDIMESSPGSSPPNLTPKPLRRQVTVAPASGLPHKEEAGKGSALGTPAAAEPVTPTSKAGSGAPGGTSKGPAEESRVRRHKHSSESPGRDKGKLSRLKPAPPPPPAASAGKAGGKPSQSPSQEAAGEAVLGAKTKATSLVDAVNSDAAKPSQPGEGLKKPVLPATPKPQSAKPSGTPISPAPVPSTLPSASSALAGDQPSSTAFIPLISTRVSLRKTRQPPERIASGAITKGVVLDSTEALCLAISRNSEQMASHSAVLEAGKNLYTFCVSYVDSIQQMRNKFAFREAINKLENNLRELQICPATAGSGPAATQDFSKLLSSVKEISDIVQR
Sequence of Serine/threonine-protein kinase 4 (Homo sapiens) (Q13043 whole entry): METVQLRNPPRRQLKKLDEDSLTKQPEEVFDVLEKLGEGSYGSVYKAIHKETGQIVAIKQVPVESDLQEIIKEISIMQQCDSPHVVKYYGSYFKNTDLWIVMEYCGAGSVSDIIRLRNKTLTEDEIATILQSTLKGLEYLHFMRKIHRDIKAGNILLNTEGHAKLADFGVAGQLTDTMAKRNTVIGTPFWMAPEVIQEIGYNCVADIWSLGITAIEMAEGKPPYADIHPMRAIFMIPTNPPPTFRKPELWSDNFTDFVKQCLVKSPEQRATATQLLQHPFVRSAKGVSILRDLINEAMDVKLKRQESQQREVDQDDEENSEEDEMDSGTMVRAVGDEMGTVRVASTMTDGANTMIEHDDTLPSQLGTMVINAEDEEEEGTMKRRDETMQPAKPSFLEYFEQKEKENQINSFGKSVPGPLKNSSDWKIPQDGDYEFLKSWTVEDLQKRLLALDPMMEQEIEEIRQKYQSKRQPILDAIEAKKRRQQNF
Sequence of Ribosomal protein S6 kinase alpha-1 (Homo sapiens) (Q15418 whole entry): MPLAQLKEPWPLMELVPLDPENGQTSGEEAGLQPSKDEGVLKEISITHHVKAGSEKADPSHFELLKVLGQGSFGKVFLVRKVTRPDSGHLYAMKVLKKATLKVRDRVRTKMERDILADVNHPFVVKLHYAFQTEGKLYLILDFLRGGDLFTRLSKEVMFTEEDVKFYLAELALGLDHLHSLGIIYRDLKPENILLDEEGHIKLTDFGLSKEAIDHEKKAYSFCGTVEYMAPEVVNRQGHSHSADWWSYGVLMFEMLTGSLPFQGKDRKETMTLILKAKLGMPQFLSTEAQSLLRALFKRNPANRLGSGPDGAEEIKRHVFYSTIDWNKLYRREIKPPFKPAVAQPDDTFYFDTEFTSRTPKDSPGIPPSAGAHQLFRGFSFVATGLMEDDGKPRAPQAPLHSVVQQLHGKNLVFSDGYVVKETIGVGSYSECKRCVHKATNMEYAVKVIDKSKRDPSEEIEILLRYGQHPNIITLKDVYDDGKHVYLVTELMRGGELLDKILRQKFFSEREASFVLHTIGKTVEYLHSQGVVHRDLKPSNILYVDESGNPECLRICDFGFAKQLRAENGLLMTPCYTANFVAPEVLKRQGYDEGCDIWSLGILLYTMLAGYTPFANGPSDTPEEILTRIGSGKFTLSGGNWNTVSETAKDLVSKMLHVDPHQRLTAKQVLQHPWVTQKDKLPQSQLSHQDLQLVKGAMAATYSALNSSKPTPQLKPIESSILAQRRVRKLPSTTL
Sequence of Alpha-2A adrenergic receptor (Homo sapiens) (P08913 whole entry): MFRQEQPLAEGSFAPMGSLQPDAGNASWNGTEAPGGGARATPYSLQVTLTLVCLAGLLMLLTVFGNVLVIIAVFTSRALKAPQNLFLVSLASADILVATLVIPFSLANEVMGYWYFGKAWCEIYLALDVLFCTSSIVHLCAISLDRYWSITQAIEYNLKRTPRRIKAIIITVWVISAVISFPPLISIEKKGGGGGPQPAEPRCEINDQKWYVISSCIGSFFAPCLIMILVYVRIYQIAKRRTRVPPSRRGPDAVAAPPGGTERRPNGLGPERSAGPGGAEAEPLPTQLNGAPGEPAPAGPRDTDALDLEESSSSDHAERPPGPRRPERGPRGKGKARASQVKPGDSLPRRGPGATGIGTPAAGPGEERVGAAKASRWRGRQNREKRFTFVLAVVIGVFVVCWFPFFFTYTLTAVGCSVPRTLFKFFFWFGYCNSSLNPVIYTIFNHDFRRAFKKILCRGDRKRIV
Sequence of Proto-oncogene tyrosine-protein kinase Src (Homo sapiens) (P12931 2-536 limits assumed): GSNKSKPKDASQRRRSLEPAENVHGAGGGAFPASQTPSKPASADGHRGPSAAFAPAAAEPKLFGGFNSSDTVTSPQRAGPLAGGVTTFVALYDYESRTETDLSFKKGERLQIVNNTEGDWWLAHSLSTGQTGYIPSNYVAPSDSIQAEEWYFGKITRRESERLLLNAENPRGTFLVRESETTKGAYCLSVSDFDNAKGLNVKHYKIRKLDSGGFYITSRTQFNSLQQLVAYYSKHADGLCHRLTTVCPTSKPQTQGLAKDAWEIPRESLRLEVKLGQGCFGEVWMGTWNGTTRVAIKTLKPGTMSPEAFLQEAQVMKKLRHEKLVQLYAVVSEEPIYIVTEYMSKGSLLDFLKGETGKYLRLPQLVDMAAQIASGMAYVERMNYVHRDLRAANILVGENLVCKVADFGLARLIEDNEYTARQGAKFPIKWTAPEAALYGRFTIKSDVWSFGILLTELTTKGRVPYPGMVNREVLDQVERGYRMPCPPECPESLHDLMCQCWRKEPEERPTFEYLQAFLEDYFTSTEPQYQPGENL

C=CC(=O)Nc1ccc2[nH]c(=O)n(C3CCN(Cc4ccc(-c5nc6cc[nH]c(=O)c6cc5-c5ccccc5)cc4)CC3)c2c1 [Borussertib]
inhibition [1]: -7.81%
inhibition [2]: 12%
inhibition [3]: -2%
inhibition [4]: 30%
inhibition [5]: 25%
inhibition [6]: 22.7%
inhibition [7]: 5%
inhibition [8]: -1%
inhibition [9]: -3%
inhibition [10]: 15%
inhibition [11]: 12.3%
inhibition [12]: 1%
inhibition [13]: -3%
inhibition [14]: 35%
inhibition [15]: 19.4%
inhibition [16]: 10%
EC50 [17]: 370 nM (active)
inhibition [18]: 9%
inhibition [19]: 0%
inhibition [20]: 18.3%
inhibition [21]: -2%
inhibition [22]: -1%
inhibition [23]: 2%
inhibition [24]: -8%
inhibition [25]: 7%
inhibition [26]: 31.3%
inhibition [27]: 7%
inhibition [28]: 14%
inhibition [29]: -2%
inhibition [30]: 9.04%
inhibition [31]: 3%
Ki [32]: 57.3 nM
pKi [32]: 7.24
inhibition [33]: -3.73%
inhibition [34]: 7%
inhibition [35]: 11.8%
inhibition [36]: 1%
Ki ([37]; read-out: Ki): 950 nM
Ki ([37]; read-out: pKi (converted)): 813 nM
inhibition [38]: -4%
inhibition [39]: 2%
inhibition [40]: 20%
inhibition [41]: 2%
inhibition [42]: 8%
inhibition [43]: 2%

Source: ChEMBL document CHEMBL4800730 (2021)
